According to US20250154197A1, “LIPOLYTIC PEPTIDES” (FUNDACIÓ HOSPITAL UNIVERSITARI VALL D'HEBRON - INSTITUT DE …, priority 2021, published 2025):
[ ]: non-standard residue; d: D form.

Key:
3T3-L1 mouse adipocytes = assay: Lipolytic activity: glycerol release in differentiated 3T3-L1 mouse adipocytes (12 h); assay type: cell-based; details: 3T3-L1 mouse adipocytes, 12 h
Method: JCRB9014-A) from Tebu-Bio (Tebu-bio, Barcelona, Spain). Briefly, mouse adipocytes (3T3-L1 cells) were cultured in 48 well plates as described previously (Saez-Lopez et al., 2020). Adipocytes were differentiated using cell culture reagents purchased from Tebu-Bio and following the manufacturer's instructions. At day of differentiation cells were treated in duplicates with vehicle (DMSO), Caffeine (100 μg/ml), and each of the peptides at the specified doses in Table 6a below. At the end of the experiment (12 h), supernatants were collected and glycerol content was measured using a Glycerol Assay Kit (Sigma) following manufacturer's instructions.

[1] = tested on: human subcutaneoous mature adipocytes; assay: Lipolytic activity: glycerol release in human adipocytes (Lipolysis Assay kit); assay type: cell-based; details: human subcutaneous mature adipocytes

For “Ac-TWDPEGVIFY-NH2 (Ac-[dT][dW][dD][dP][dE]G[dV][dI][dF][dY]-NH2; SMILES CC[C@@H](C)[C@@H](NC(=O)[C@H](NC(=O)CNC(=O)[C@@H](CCC(=O)O)NC(=O)[C@H]1CCCN1C(=O)[C@@H](CC(=O)O)NC(=O)[C@@H](Cc1c[nH]c2ccccc12)NC(=O)[C@H](NC(C)=O)[C@H](C)O)C(C)C)C(=O)N[C@H](Cc1ccccc1)C(=O)N[C@H](Cc1ccc(O)cc1)C(N)=O) [GP3D-AcNH2, N-term CH3CONH, C-term CONH2]”, the “Lipolysis Activity measured as Glycerol (μM) release in media” value (“Lipolysis Activity measured as Glycerol” below) (3T3-L1 mouse adipocytes; 1 μg/ml) was 606 µM, the “Lipolysis Activity measured as Glycerol” value (3T3-L1 mouse adipocytes; 10 μg/ml) was 464 µM and the “Lipolysis Activity measured as Glycerol” value (3T3-L1 mouse adipocytes; 100 μg/ml) was 472 µM.

In the case of “DPEGVFY (H-[dD][dP][dE]G[dV][dF][dY]-OH; SMILES CC(C)[C@@H](NC(=O)CNC(=O)[C@@H](CCC(=O)O)NC(=O)[C@H]1CCCN1C(=O)[C@H](N)CC(=O)O)C(=O)N[C@H](Cc1ccccc1)C(=O)N[C@H](Cc1ccc(O)cc1)C(=O)O) [GP3D-7 I II VIII, N-term NH2, C-term COOH]”, the “Lipolysis Activity measured as Glycerol” value (3T3-L1 mouse adipocytes; 1 μg/ml) is reported as 485 µM, the “Lipolysis Activity measured as Glycerol” value (3T3-L1 mouse adipocytes; 10 μg/ml) is reported as 325 µM and the “Lipolysis Activity measured as Glycerol” value (3T3-L1 mouse adipocytes; 100 μg/ml) is reported as 340 µM.

For “DPEGVIFY (H-[dD][dP][dE]G[dV][dI][dF][dY]-OH; not fully specified) [GP3D-8 I II, N-term NH2, C-term COOH]”, the “Lipolysis Activity measured as Glycerol” value (3T3-L1 mouse adipocytes; 1 μg/ml) was 401 µM, the “Lipolysis Activity measured as Glycerol” value (3T3-L1 mouse adipocytes; 10 μg/ml) was 474 µM and the “Lipolysis Activity measured as Glycerol” value (3T3-L1 mouse adipocytes; 100 μg/ml) was 468 µM.

In the case of “DPEGVLY (H-[dD][dP][dE]G[dV][dL][dY]-OH; SMILES CC(C)C[C@@H](NC(=O)[C@H](NC(=O)CNC(=O)[C@@H](CCC(=O)O)NC(=O)[C@H]1CCCN1C(=O)[C@H](N)CC(=O)O)C(C)C)C(=O)N[C@H](Cc1ccc(O)cc1)C(=O)O) [GP3D-DM3, N-term NH2, C-term COOH]”, the “Lipolysis Activity measured as Glycerol” value (3T3-L1 mouse adipocytes; 100 μg/ml) is reported as 307 µM.

With “NDPEGY (H-[dN][dD][dP][dE]G[dY]-OH; SMILES NC(=O)C[C@@H](N)C(=O)N[C@H](CC(=O)O)C(=O)N1CCC[C@@H]1C(=O)N[C@H](CCC(=O)O)C(=O)NCC(=O)N[C@H](Cc1ccc(O)cc1)C(=O)O) [GP3DM-20, N-term NH2, C-term COOH]” the “Lipolysis Activity measured as Glycerol” value ([1]; 25 μg/ml) was 128.1 µM, the “Lipolysis Activity measured as Glycerol” value ([1]; 50 μg/ml) was 117.7 µM and the “Lipolysis Activity measured as Glycerol” value ([1]; 100 μg/ml) was 118.7 µM.

For “TDPEGVIF (H-[dT][dD][dP][dE]G[dV][dI][dF]-OH; not fully specified) [GP3D-8 II X, N-term NH2, C-term COOH]”, the “Lipolysis Activity measured as Glycerol” value (3T3-L1 mouse adipocytes; 1 μg/ml) was 391 µM, the “Lipolysis Activity measured as Glycerol” value (3T3-L1 mouse adipocytes; 10 μg/ml) was 434 µM and the “Lipolysis Activity measured as Glycerol” value (3T3-L1 mouse adipocytes; 100 μg/ml) was 493 µM.

In the case of “TDPEGVIFY (H-[dT][dD][dP][dE]G[dV][dI][dF][dY]-OH; not fully specified) [GP3D-9 II, N-term NH2, C-term COOH]”, the “Lipolysis Activity measured as Glycerol” value (3T3-L1 mouse adipocytes; 100 μg/ml) is reported as 315 µM.

For “TDPEGVIY (H-[dT][dD][dP][dE]G[dV][dI][dY]-OH; not fully specified) [GP3D-8 II IX, N-term NH2, C-term COOH]”, the “Lipolysis Activity measured as Glycerol” value (3T3-L1 mouse adipocytes; 1 μg/ml) was 557 µM, the “Lipolysis Activity measured as Glycerol” value (3T3-L1 mouse adipocytes; 10 μg/ml) was 508 µM and the “Lipolysis Activity measured as Glycerol” value (3T3-L1 mouse adipocytes; 100 μg/ml) was 370 µM.

“WDPEGVF (H-[dW][dD][dP][dE]G[dV][dF]-OH; SMILES CC(C)[C@@H](NC(=O)CNC(=O)[C@@H](CCC(=O)O)NC(=O)[C@H]1CCCN1C(=O)[C@@H](CC(=O)O)NC(=O)[C@H](N)Cc1c[nH]c2ccccc12)C(=O)N[C@H](Cc1ccccc1)C(=O)O) [GP3D-7 I VIII X, N-term NH2, C-term COOH]” was tested, and the “Lipolysis Activity measured as Glycerol” value ([1]; 25 μg/ml) was 14.57 µM, the “Lipolysis Activity measured as Glycerol” value ([1]; 50 μg/ml) was 36.68 µM and the “Lipolysis Activity measured as Glycerol” value ([1]; 75 μg/ml) was 42.95 µM. The “Lipolysis Activity measured as Glycerol” value ([1]; 100 μg/ml) was 46.85 µM.

With “acetyl-hexapeptide-39 (Ac-SIYVAT-NH2) [Hexa-39, reference compound]” the “Lipolysis Activity measured as Glycerol” value ([1]; 100 μg/ml) was 29.21 µM.
